Assay results taken from patent publication US6610699B2, “Use of L-carnitine and its alkanoyl derivatives in the preparation of medicaments with anticancer activity” (Sigma-Tau Industrie Farmaceutiche Riunite S.p.A., priority 1998, dated 2003).

Columns and labels:
female BALB/c mice = experiment: Taxol (i.p.)-induced neutropenia in the mouse, blood cell count
Description: In this model, the amount of circulating neutrophils was measured.
Acetyl L-carnitine inner salt (sterile ampoule), solubilised in water for injectable preparations, was used. Each ampoule of ALC is dissolved in 4 ml of water for injections (Solution O). Two ml of (O) are brought up to 25 ml with sterile PBS (Sigma), so as to have 10 mg/ml for subcutaneous administration (100 mg/kg/ 10 ml); 0.8 ml of (O) are brought to 50 ml with PBS in order to have 2 mg/ml for oral administration (100 mg/kg/50 ml).
At the time of use, the 12 mg/ml solution is diluted 1:4 with saline in phosphate buffer (PBS) (SIGMA,) and injected i.p. (30 mg/kg/10 ml).
The mice are anaesthetised with CO2; blood is taken from the retro-orbital plexus (0.5 ml blood/mouse) and placed in Eppendorf test tubes containing 10 μl of Vister heparin (5000 U/ml). The animals are sacrificed by cervical dislocation. Later, the bone marrow samples are taken.
The instrument is used according to the instructions provided in the operating manual. The blood (25 μl) is taken from the dilutor and brought to a volume of 10 ml with isotonic solution (PLTA Saline, Delcon) in a beaker (dil. 1:400) (Solution A). From Solution A, the dilutor takes 100 μl and brings them to 10 ml (dil. 1:100) in another beaker (Solution B). To Solution A are added 3 drops of lysing agent (Emosol, Delcon), the solution is mixed by hand and left to act for approximately 2 minutes so that the red blood cells are lysed and HGB (haemoglobin) released. Solution A containing the lysing agent is used for the WBC and haemoglobin (HGB) readings. Solution B is used for the RBC and platelet (PLT) readings.
Double readings are done on each sample, and between one sample and the next, the instrument is washed using isotonic solution,
Superfrost plus slides (25×75×1 mm) (Mensel-Glaser), ready for use, are adopted. The blood (8 μl) is deposited on the right-hand side of the slide; another slide, placed at a 45° angle, to the left of the blood, is drawn back until in comes into contact with the drop which spreads rapidly along the contact line between the two slides; the slide is moved forwards with a smooth, rapid movement so as to obtain a thin film of blood. The slide is left to dry in air, stained with Diff-Quick (DADE) dye, according to the attached instructions, and dried again in air.
The slides are immersed in Histolemon solution (Carlo Erba) for 2 sec.; a drop of synthetic mountant (Shandon) os deposited at the centre of the slide and a cover slide is placed over it covering the entire blood smear, taking care not to form bubbles between the two slides. The slides are dried and then the WBC count is performed, up to 100, with an optical microscope, after depositing a drop of cedar oil on the slide.
The quantity of […], assessed using the haemocytometer, is multiplied by the percentage value of the corresponding neutrophil granulocytes of the leukocyte formula. This parameter, divided by 100, expresses the value of neutrophils/mm^3 blood.
Data are expressed as means ±SE. Comparison between the neutrophil granulocyte values obtained for the different groups is done using ANOVA. Abnormal values are subjected to the Dixon test.

M109 murine lung cancer [1] = experiment: Growth of M109 murine lung cancer in BALB/c mice; assay type: in vivo, mouse; conditions: for Tumour size, Day 8 / Tumour size, Day 11 / Tumour size, Day 13 / Tumour size, Day 15 / Tumour size, Day 20: taxol 30 mg/kg i.p., ALC 100 mg/kg os; for Tumour size, Day 8: day 8 post-inoculation; for Tumour size, Day 11: day 11 post-inoculation; for Tumour size, Day 13: day 13 post-inoculation; for Tumour size, Day 15: day 15 post-inoculation; for Tumour size, Day 20: day 20 post-inoculation
Description: Each ampoule of ALC is dissolved in 4 ml of the solvent provided (solution O). To be precise, 1.6 ml of solution O are brought to 40 ml with sterile buffer solution (PBS, Sigma P-4417) and then administered orally (100 mg/kg/20 ml).
At the time of use, the 12 mg/ml solution is diluted 1:4 with saline in phosphate buffer (PBS) (SIGMA,) and injected i.p. (30 mg/kg/ 10 ml).
Animals: 60 female Balb/c mice weighing 18 g (Harlan).
M109 tumour cells isolated from solid tumour.
The procedure described by Kedar E., B. Ikejiri, G. D. Bannard and R. B. Herberman (Eur. J. Cancer Clin. Oncol. 18; 991: 1982) is adopted with modifications. One Balb/c mouse (donor) was sacrificed by cervical dislocation, and after washing its back with denatured alcohol, the dorsal skin was cut longitudinally into two flaps which were detached to remove the tumour mass. The latter was placed on sterile gauze, where it was freed of connective tissue adhesions and of the necrotic and haemorrhagic parts. The study tissue was placed in a plate containing PBS with Ca^++ and Mg^++ (Gibco) at pH 7.2 and cold, broken down into pieces measuring 2-3 mm and re-suspended in a solution (15 ml solution/g tumour) of PBS with Ca^++ and Mg^++, pH 7.2m containing 2 mg/ml trypsin (type III. 10000 U/mg protein, Sigma-Aldrich), 2 mg/ml collagenase (type I-S 180 U/mg solid, Sigma), 0.2 mg/ml DNAse (type I 1548 U/mg protein. Sigma) and 25 μg/ml gentamicin (Sigma) and incubated at 37° C. for 15 minutes under constant stirring. The cell suspension was then homogenised with the aid of a potter (B. Braun) for 2 minutes, incubated at 37° C. for 10 minutes and aspirated gently a number of times with a syringe with a No. 21 sterile needle. After addition of 30 ml of RPMI-1640 (Eurobio) containing 10% FBS (Eurobio) maintained at 4° C. the cell suspension was filtered on sterile gauze and then centrifuged at 700 g for 10 minutes. The cell pellet was re-suspended gently in RPMI-1640 containing 10% FBS and 0.2 mg/ml DNAse (Sigma) and then centrifuged at 700 g for 10 minutes. The pellet was consecutively subjected to two washings with RPMI-1640; at the end of the last washing, the pellet was re-suspended gently in RPMI-1640 so as to perform the count to establish the cell concentration.
Inoculation conditions: 60 unanaesthetised Balb/c mice weighing approximately 18 g (Harlan) received i.m. injections of 3×10^5 M109 lung cancer cells in 0.1 ml of RPMI-1640 (Sigma) in the right rear paw.
Treatment schedule: for the purposes of evaluating tumour size in the experimental study groups, each consisting of 15 Balb/c mice, 3×10^5 M109 lung cancer cells were inoculated, and the study molecules were administered at the scheduled times. […] The vehicle diluted 1:4 with PBS from the mother solution was administered i.p. on days 8, 10, 12 and 14.
The tumour mass is calculated on the basis of the measurements of the two dimensions (length and width), expressed in mm. according to the following formula: [formula]
If we consider conventionally a tumour density equal to 1, the result is that the tumour volume expressed in mm^3 is equal to the weight of the tumour expressed in mg.

M109 murine lung cancer [2] = conditions: for Size of metastases / number of lung metastases (Mean ± SD): day 22 after inoculation
Description: The animals were kept under observation up to day 22 after inoculation of the M109 murine lung cancer cells, and were then sacrificed the lungs removed to determine the number of metastases.
Determination of the number of lung metastases: on day 22 after inoculation of M109 murine lung cancer, the study animals were sacrificed by cervical dislocation. Their lungs were then removed and kept for approximately 5-7 days in 5 ml of Bouin's solution with the following composition: 71% as saturated picric acid solution (Merck), and 24% as 10% formaldehyde (Fluka). When lung metastases were evident, their numbers were counted.
Statistical analysis of the data for tumour size and number of lung metastases was carried out using the non-parametric Mann-Whitney test for unpaired data.

[3] = 6 hours after last administration (Table 4)
[4] = taxol 30 mg/kg i.p. x4, ALC 100 mg/kg, sacrifice 6 hours after last taxol administration
[5] = taxol 30 mg/kg i.p. x4 on alternate days, ALC 100 mg/kg, sacrifice 6 hours after last taxol administration
[6] = taxol i.p., sacrifice 3 days after last taxol administration
[7] = three days after last administration (Table 5)

SMILES | changes in neutrophils compared to vehicle alone or untreated animals (in words) (female BALB/c mice; [3]) | Absolute neutrophils (female BALB/c mice; [4]) | Lymphocytes (female BALB/c mice; [4]) | Neutrophils (female BALB/c mice; [4]) | WBC (female BALB/c mice; [5]) | Absolute neutrophils (female BALB/c mice; [6]) | Lymphocytes (female BALB/c mice; [6]) | Neutrophils (female BALB/c mice; [6]) | WBC (female BALB/c mice; [6]) | changes in neutrophils compared to vehicle alone or untreated animals (in words) (female BALB/c mice; [7]) | Tumour size, Day 8 (M109 murine lung cancer [1]) | Tumour size, Day 11 (M109 murine lung cancer [1]) | Tumour size, Day 13 (M109 murine lung cancer [1]) | Tumour size, Day 15 (M109 murine lung cancer [1]) | Tumour size, Day 20 (M109 murine lung cancer [1]) | Size of metastases (M109 murine lung cancer [2]) | number of lung metastases (Mean ± SD) (M109 murine lung cancer [2]) | other results
CC(=O)O[C@H](CC(=O)[O-])C[N+](C)(C)C [ALC, acetyl L-carnitine] | no changes | 708 ± /mm^3 | 88.7% | 11.2% | 6452 Mm^3 | 691 ± /mm^3 | 89.9% | 10.1% | 6920 Mm^3 | no changes |  |  |  |  |  |  |  | polymorphonucleates, change under taxol with acetyl L-carnitine (female BALB/c mice; acetyl L-carnitine 100 mg/kg oral (os) with taxol 30 mg/kg i.p. x4): −23%; polymorphonucleates, change under taxol with acetyl L-carnitine (female BALB/c mice; acetyl L-carnitine 100 mg/kg subcutaneous (sc) with taxol 30 mg/kg i.p. x4): 8-43%; effect on the anticancer action of taxol, inhibition of the tumour mass (in words) (M109 murine lung cancer [1]; ALC 100 mg/kg os with taxol 30 mg/kg i.p.): does not interfere with the anticancer action of taxol; effect on the formation of lung metastases (in words) (M109 murine lung cancer [2]; ALC 100 mg/kg os): mild inhibitory effect
CC(=O)O[C@H]1C(=O)[C@@]2(C)[C@H]([C@H](OC(=O)c3ccccc3)[C@]3(O)C[C@H](OC(=O)[C@H](O)[C@@H](NC(=O)c4ccccc4)c4ccccc4)C(C)=C1C3(C)C)[C@]1(OC(C)=O)CO[C@@H]1C[C@@H]2O [Taxol, paclitaxel, reference compound] |  |  |  |  |  |  |  |  |  |  | 539 mm^3 | 662 ± mm^3 | 622 ± mm^3 | 857 ± mm^3 | 1085 ± mm^3 | S (S = Small (<1 mm diam)) | **9 ± 7.3 | neutrophil granulocytes vs vehicle (female BALB/c mice; mouse, in vivo): −64%; reduction in neutrophils (female BALB/c mice; mouse, in vivo): 98%; Absolute neutrophils (female BALB/c mice; mouse, in vivo, ip): ****250 ± /mm^3; Lymphocytes (female BALB/c mice; mouse, in vivo, ip): 95.5%; Neutrophils (female BALB/c mice; mouse, in vivo, ip): 4.5%; WBC (female BALB/c mice; mouse, in vivo, ip): 5855 Mm^3
CC(=O)O[C@H](CC(=O)[O-])C[N+](C)(C)C [Vehicle + ALC, acetyl L-carnitine] | no changes | 511 ± /mm^3 | 91.5% | 8.5% | 5950 Mm^3 | 625 ± /mm^3 | 89.2% | 10.7% | 6067 Mm^3 | no changes | 567 mm^3 | 959 mm^3 | 1289 mm^3 | 1779 ± mm^3 | 2251 mm^3 | M, S | **77 ± 13.2 | 
